Data set [1] relates to N1H3T3 murine fibroblasts transduced with v-Ha-ras or c-src. Put plainly: Sensitivity of fibroblasts towards Siramesine after oncogenic transformation. The following applies: upon oncogenic transformation by ras or src. It is filed as cell-based. From the text:
(§1) Murine fibrosarcoma cells WEHI-S, Wn902, Wn912, and WEHI-R4 are normal, vector control, Hsp70 overexpressing, and hTNF resistant cells, respectively. Other cell types tested include: Human breast cancer cell types MCF7-S1 and MDA-MB-468, and non-tumorigekic immortalized breast epithelial cells HBL100. MCF7 casp3.1 and −3.3 and neo2 are single cell clones expressing caspase3 and vector. MCF7 pCEP, -Bcl2 WT, -Bcl2 NT, -Bcl2 Acta, and -Bcl2 Cb5 are single cell clones expressing vector, wildtype Bcl2, cytoplasma localized Bcl2, mitochondria localized Bcl2, and ER localized Bcl2 (Maria Høyer Hansen, Apoptosis Laboratory, Danish Cancer Society). Human neuroblastoma cell line SK-N-MC cells (ATCC, USA). […]
(§2) Cell viability was measured using the MTT reduction assay. Conversion of the tetrazolium salt 3-(4,5-dimethylthiazole-2-yl)-2,5-diphenyltetrasodiumbromide (MTT, SIGMA-Aldrich) into the blue-colored formazan product was assessed spectrophotometrically by absorption at 570 nm using a Versamax microplate reader (Molecular Devices). The survival rate was determined as the percentage of untreated cells or inhibitor-treated cells: Cells were seeded into 96-well plate, containing 200 μL media, and treated the following day with drugs. The effect on cell viability was assessed 24-60 h after drug addition by removal of 100 μL media and addition of 25 μL MTT solution (1 mg/mL in PBS, sterile filtered). […]

For a further data set, the system named is effector caspase. In words: Mode of cell death: nuclear morphology, caspase inhibitors, caspase 3/7-like activity. It is filed as cell-based. The source says: (§3) The following protease inhibitors were used: zVAD-fmk, DEVD-fmk (Bachem Bubendorf, Switzerland), DEVD-CHO (Neosystems, Strasbourg, France), LEHD-CHO, zFA-fmk (Enzyme System Products, Livermore, Calif.), CA-074-Me (Peptides International, Louisville, Ky.), APC1138 (Celera Applied Biosystems, Foster City, Calif., USA),. Pepstatin A, PD150606, and calpain inhibitor I (CI) (Calbiochem, La Jolla, Calif.), TPCK (Boehringer Mannheim), pefabloc (AEBSF) (Roche Diagnostics, DK).
The cell death mode was assessed by the type of nuclear condensation and performed by hoechst staining (cell permeable Hoechst 33342, SIGMA-Aldrich) of drug-treated cells. Non cell permeable Sytox Green (Molecular Probes) was used to assay loss of membrane integrity and compared with nuclear morphological changes observed with Hoechst. Cells were incubated with 10.000× dilution of 25 mg/mL hoechst and /or 10.000× dilution of 5 mM sytox green for 5 min at 37° C. where after type of nuclear condensation and possible co-stain was analyzed using an inverted Olympus microscope IX-70.
To measure cytosolic cystein cathepsin enzyme activity, subconfluent cells seeded in 24-well plates were treated with an extraction buffer (250 mM sucrose, 20 mM HEPES, 10 mM KCl, 1.5 mM MgCl2, 1 mM EDTA, 1 mM EGTA, 1 mM pefablock; pH 7.5) containing 20 μg/mL digitonin for 12-15 min on ice. […]

The subject of a further data set is lysosomal cathepsins. Put plainly: Release of lysosomal cathepsins (immunostaining of cathepsin B and L, purified lysosomes, cathepsin inhibitors). It is filed as cell-based.
Source text: as §3
To measure cytosolic cystein cathepsin enzyme activity, subconfluent cells seeded in 24-well plates were treated with an extraction buffer (250 mM sucrose, 20 mM HEPES, 10 mM KCl, 1.5 mM MgCl2, 1 mM EDTA, 1 mM EGTA, 1 mM pefablock; pH 7.5) containing 20 μg/mL digitonin for 12-15 min on ice. To measure total cellular cystein cathepsin enzyme activity, cells were treated with the above extraction buffer containing 200 μg/mL digitonin for 12-15 min on ice. […]
Cells were exposed to the lysomotropic weak base and metachromatic fluorochrome acridine orange (AO, Molecular Probes) that accumulates in acidic compartments. […] Cells were either evaluated using an inverted Olympus microscope IX-70 or detached from the substratum and analyzed by flow cytometry using a FACSort (Becton Dickinson, San Jose, Calif.) with an argon ion laser with an output wavelength of 488 nm and analyzed using CELLQuest software. […]

For data set [2], the system named is WEHI-S cells. Put plainly: Induction of cell death in combination with chemotherapeutics. Particulars: together with etoposide, doxorubicin, staurosporin, vincristine and tamoxifen. It is filed as cell-based, murine.
Source text: as §1, §2

Data set [3] has as its system Tumor cells protected by ectopic expression of Bcl-2. Put plainly: Killing of tumor cells with ectopic expression of Bcl-2. Format: cell-based. The following applies: cells protected against most other anti-cancer drugs by ectopic expression of Bcl-2.
Source text: as §1, §2

A further data set deals with WEHI-R4 cells. Here is the method:
WEHI-R4 cells (5×10^6) were implanted subcutaneously in the back of immunocompetent female BALB/c mice. Siramesine treatment commenced two days prior to tumor implant. Mice were divided into groups (5-9/group) and administered peroral 200 μL 1) vehicle (0.5% methylcellulose 15 in 0.9% NaCl solution), 2) 100 mg/kg/day Siramesine in suspension (in 0.5% methylcellulose 15 in 0.9% NaCl solution) 7 days per week. For combinational in vivo studies, 50 mg/kg siramesine was administered 7 days/week in combination with a single dose of etoposide (i.p.) up to 30 mg/kg (administered on day one). Tumor volumes were estimated by the use of a caliper. The effect of the drugs on the tumor growth was monitored over 14-21 days before the mice were sacrificed.

For the next data set, the system named is MCF7 cells. Put plainly: Induction of apoptosis compared with reference sigma ligands, MCF7. Format: cell-based, human. The following applies: versus Haloperidol and pentazocine.
Source text: as §1, §2

For another data set, the system named is p53. Put plainly: p53 activation. Format: cell-based.
Data set [4] deals with cultured tumor cell lines originating from tumors of the prostate, breast and cervix. Put plainly: Induction of programmed cell death in cultured tumor cell lines (MTT / LDH release). It is filed as cell-based, human. Particulars: dose dependent, tumor cell lines of various origins incl. prostate.
Source text: as §1, §2
In general terms: LDH leaks from cells whose membrane has failed.

Data set [5] deals with WEHI-S cells. Put plainly: Induction of apoptosis compared with reference sigma ligands, WEHI-S. Format: cell-based, murine. Particulars: versus Haloperidol and pentazocine.
Source text: as §1, §2

The structures appear in SMILES notation.

As to `Fc1ccc(-n2cc(CCCCN3CCC4(CC3)OCc3ccccc34)c3ccccc32)cc1` [Siramesine, 1′-[4-[1-(4-fluorophenyl)-1H-indole-3-yl]-1-butyl]-spiro[isobenzofuran-1(3H)4′-piperidine]], the “sensitivity of cells towards Siramesine” value in data set [1] is on record as “increased”. Also, in the data set on effector caspase, the effector caspase activation result is on record as “absence of effector caspase activation”. Besides, the mode of death result with effector caspase (based on nuclear morphological changes and absence of protection by pharmacological caspase inhibitors) is recorded as “caspase-independent”. Further, the “effect of pharmacological cathepsin inhibitors on siramesine-induced death” value in the data set on lysosomal cathepsins is “can attenuate the death”. Besides, the “release of lysosomal cathepsins into the cytosol” value with lysosomal cathepsins (immunohistochemical staining of cathepsin B and L, in vitro release from purified lysosomes) was “release of lysosomal cathepsins into the cytosol seems to be involved in the execution of the death process”. Moreover, the “interaction with chemotherapeutics in induction of cell death” value with WEHI-S cells [2] is “synergistic”. The “killing of Bcl-2 expressing tumor cells” value in [3] is “effectively killed”. For the same compound, the “effect on tumor growth” value in the data set with WEHI-R4 cells (BALB/c mice, siramesine alone, peroral) is recorded as “anti-tumorigenic effect”. In addition, the “effect on tumor growth, combination with etoposide” value with WEHI-R4 cells (BALB/c mice, siramesine and etoposide versus groups single-treated) is “combinational effect”. Moreover, the tolerability in vivo result with WEHI-R4 cells (mouse, in vivo) is “well tolerated”. In addition, the “potency as inducer of apoptosis versus reference sigma ligands” value in the data set on MCF7 cells is “significantly more potent inducer of apoptosis than Haloperidol and pentazocine”; in the data set on WEHI-S cells [5] it was “significantly more potent inducer of apoptosis than Haloperidol and pentazocine”. In addition, the “activation of p53” value in the data set on p53 was “does not activate p53”. The “induction of programmed cell death” value in data set [4] is on record as “effectively induces programmed cell death”.

These data come from patent US20060178389A1, “Use of siramesine in the treatment of cancer” (priority 2003, published 2006).
